Literature values, collected in US20250346572A1, “NON-ACID INHIBITORS OF INOSITOL HEXAKISPHOSPHATE KINASE (IP6K) AND METHODS OF USE THEREOF” (Lieber Institute, Inc., priority 2022, published 2025).

System: Mice treated with HFD
Details: HFD for 8 weeks, then daily intraperitoneal 20 mg/kg TNP and HFD for 18 days

**Q.** For O=[N+]([O-])c1ccc(CNc2nc(NCc3cccc(C(F)(F)F)c3)nc3nc[nH]c23)cc1 [TNP, N2-(m-trifluorobenzyl)-N6-(p-nitrobenzyl)purine], which “glucose tolerance and insulin sensitivity” value is on record?
**A.** Its value is “improved glucose tolerance and insulin sensitivity”.

**Q.** And the serum insulin levels?
**A.** The serum insulin levels was “lower serum insulin levels”.
